According to patent US10604521B2, “Crystalline forms of PLX3397 hydrochloride, processes for preparation and use thereof” (Crystal Pharmaceutical (Suzhou) Co., Ltd., priority 2016, dated 2020):
Where a name gives a salt, the structure may show the parent alone.

Experiments:
[1] = Mechanical stability: grinding in agate mortar, XRPD; type: physicochemical; conditions: grinding for 5 minutes in agate mortar
Method: A certain amount of Form C of WO2016179415, Form CS2 and Form CS3 samples were placed in an agate mortar. After grinding for 5 minutes, the obtained solid was collected for XRPD characterization. The results of Form C of WO2016179415, Form CS2 and Form CS3 were substantially as depicted in FIG. 16, FIG. 17 and FIG. 18, respectively.

[2] = Dynamic solubility (saturated solutions, HPLC); type: physicochemical; conditions: monohydrochloride
Method: High Performance Liquid Chromatography (HPLC) data in the present disclosure are collected from Agilent 1100 with diode array detector (DAD). The HPLC method parameters for solubility test in the present disclosure are as follows:
4. Injection Volume: 4 μL
5. Detection wavelength: 230 nm
6. Column Temperature: 40° C.
7. Diluent: 50% Acetonitrile
Form CS2 of the present disclosure and Form C of WO2016179415 were suspended into SGF (Simulated gastric fluids) and water to get saturated solutions. After equilibrated for 1 h and 4 h, concentrations of the saturated solutions were measured by HPLC.

[3] = Stability assessment of Form CS2 stored at 5° C. (XRPD and HPLC); type: physicochemical; conditions: for Purity: HPLC; for Solid Form: XRPD
Method: Form CS2 of the present disclosure was stored at 5° C. Samples were taken after 15 and 30 days to test XRPD and HPLC. The stability of From CS2 was mainly investigated. […] XRPD patterns overlay before and after storage for 30 days was substantially as depicted in FIG. 14.

[4] = Hygroscopicity test by dynamic vapor sorption (DVS), XRPD before and after; type: physicochemical; conditions: 40%-95%-0-95% RH cycle at 25° C.
Method: Dynamic Vapor Sorption (DVS) is measured via a SMS (Surface Measurement Systems Ltd.) intrinsic DVS. Typical Parameters for DVS test are as follows: Temperature: 25° C. Gas and flow rate: N2, 200 mL/min dm/dt: 0.002%/min RH range: 0% RH to 95% RH 6.2 mg of monohydrochloride Form CS2 was placed into dynamic vapor sorption (DVS) instrument, and then went through a 40%-95%-0-95% RH cycle at 25° C. The DVS plot was substantially as depicted in FIG. 10. The XRPD patterns overlay of solids before and after DVS test was substantially as depicted in FIG. 11 (Top: XRPD pattern before DVS; Bottom: XRPD pattern after DVS). […] 7.9 mg of dihydrochloride Form CS3 was placed into dynamic vapor sorption (DVS) instrument, and then went through a 40%-95%-0-95% RH cycle at 25° C. The DVS plot was substantially as depicted in FIG. 12. The XRPD patterns overlay of solids before and after DVS test was substantially as depicted in FIG. 13 (Top: XRPD pattern before DVS; Bottom: XRPD pattern after DVS).

[5] = stored at 80° C. for 7 days; cited from earlier work
[6] = Particle size distribution (PSD), laser particle size analyzer, wet process; type: physicochemical; conditions: volume distribution, dispersion medium Isopar G
Method: The particle size distribution test in the present disclosure is acquired by the S3500 laser particle size analyzer of Microtrac. Microtrac S3500 is equipped with the SDC (Sample Delivery Controller). The test is carried out by wet process, and the dispersion medium is Isopar G The parameters are as follow: [table] Mv: Average particle size calculated by volume. D10: particle size which accounts for 10% of the particle size distribution (volume distribution). D50: particle size which accounts for 50% of the particle size distribution (volume distribution), also known as the median particle size. D90: particle size which accounts for 90% of the particle size distribution (volume distribution). PSD was performed on Form CS3 of the present disclosure and Form C of WO2016179415.

[7] = Stability assessment of Form CS3 stored at 25° C./60% RH; type: physicochemical
Method: Form CS3 of the present disclosure was stored at 25° C./60% RH for 90 days. Samples were taken after 15, 30 and 90 days to investigate the stability of From CS3. […] XRPD patterns overlay before and after storage for 90 days was substantially as depicted in FIG. 15.

Compound: FC(F)(F)c1ccc(CNc2ccc(Cc3c[nH]c4ncc(Cl)cc34)cn2)cn1 [Form CS2, PLX3397 monohydrochloride]
- Crystalline form after grinding ([1]; monohydrochloride): crystallinity of Form CS2 and Form CS3 decreased but the crystalline forms remained unchanged
- Solubility ([2]; H2O, 1 h): 2170 µg/mL
- Solubility ([2]; H2O, 4 h): 1290 µg/mL
- Solubility ([2]; SGF, 1 h): 1130 µg/mL
- Solubility ([2]; SGF, 4 h): 1280 µg/mL
- Purity ([3]; 15 days): 99.45%
- Solid Form ([3]; 15 days): No form change
- Purity ([3]; 30 days): 99.44%
- Solid Form ([3]; 30 days): No form change
- Purity ([3]; Initial): 99.53%
- Solid Form ([3]; Initial): No form change
- Form change after DVS test [4]: No form change

Compound: FC(F)(F)c1ccc(CNc2ccc(Cc3c[nH]c4ncc(Cl)cc34)cn2)cn1 [Form A, PLX3397 monohydrochloride]
- Form change on storage [5]: converted to Form C

Compound: FC(F)(F)c1ccc(CNc2ccc(Cc3c[nH]c4ncc(Cl)cc34)cn2)cn1 [Form C, PLX3397 monohydrochloride, reference compound]
- Crystalline form after grinding ([1]; listed as Form C of WO2016179415, monohydrochloride): substantially changed to amorphous
- Solubility ([2]; H2O, 1 h): 80 µg/mL
- Solubility ([2]; H2O, 4 h): 600 µg/mL
- Solubility ([2]; SGF, 1 h): 490 µg/mL
- Solubility ([2]; SGF, 4 h): 560 µg/mL
- D(10) ([6]; monohydrochloride): 2.35 μm
- D(50) ([6]; monohydrochloride): 18.26 μm
- D(90) ([6]; monohydrochloride): 118.8 μm

Compound: FC(F)(F)c1ccc(CNc2ccc(Cc3c[nH]c4ncc(Cl)cc34)cn2)cn1 [Form CS3, PLX3397 dihydrochloride]
- Crystalline form after grinding ([1]; dihydrochloride): crystallinity of Form CS2 and Form CS3 decreased but the crystalline forms remained unchanged
- D(10) ([6]; dihydrochloride): 6.55 μm
- D(50) ([6]; dihydrochloride): 47.85 μm
- D(90) ([6]; dihydrochloride): 194.3 μm
- Form change after DVS test [4]: No form change
- Purity ([7]; 15 days): 99.60%
- Solid Form ([7]; 15 days): No form change
- Purity ([7]; 30 days): 99.64%
- Solid Form ([7]; 30 days): No form change
- Purity ([7]; 90 days): 99.50%
- Solid Form ([7]; 90 days): No form change
- Purity ([7]; Initial): 99.51%
- Solid Form ([7]; Initial): No form change
